The values that follow come from ChEMBL document CHEMBL2010742, “Phaeosphaerins A-F, cytotoxic perylenequinones from an endolichenic fungus, Phaeosphaeria sp” (J Nat Prod, 2012).

Active and inactive are the calls of the source. The rule behind the calls is not given here.

Data set [1] deals with PC-3. Put plainly: Cytotoxicity against human PC3 cells after 24 hrs by MTT assay. Type of data set: functional, cell-based. To be noted: PC-3, 24 h. On the technique in general: Tetrazolium assays rely on reduction of a dye to a coloured formazan, in cell work by metabolically active cells.
The test system of data set [2] is DU-145. The data set can be described thus: Cytotoxicity against human DU145 cells after 24 hrs by MTT assay. It is filed as functional, cell-based. Particulars: DU-145, 24 h.
For data set [3], the system named is LNCaP. The data set can be described thus: Cytotoxicity against human LNCAP cells after 24 hrs by MTT assay. It is filed as functional, cell-based.
The nature of data set [4]: Drug uptake in human MCF7 cell lysosomes at 20 uM after 10 mins by […] staining-based confocal microscopic analysis. It is filed as ADME, Lysosome. To be noted: mcf7, 10 min.
Data set [5] relates to K562. The data set can be described thus: Cytotoxicity against human K562 cells after 24 hrs by MTT assay. Type of data set: functional, cell-based. To be noted: K562, 24 h.
Data set [6] concerns K562. Put plainly: Cytotoxicity against human K562 cells treated for 4 hrs followed irradiated with […] light for 1000 seconds by MTT assay. It is filed as functional, cell-based. To be noted: K562, light or radiation study.
The test system of data set [7] is K562. The data set can be described thus: Induction of ROS production in human K562 cells at 10 uM after 3 hrs by DCF fluorescence analysis. Type of data set: functional, cell-based.

As a reminder, the IC50 is the concentration at which inhibition is half-maximal. As to `COc1cccc2c1C(=O)c1c(O)c3c(c(O)c1C2=O)C[C@@](O)(C(=O)CO)C[C@@H]3O[C@H]1C[C@H](N)[C@H](O)[C@H](C)O1` [DOXORUBICIN], the IC50 in data set [1] stood at 19.5 µM; in data set [2], 23.5 µM; in data set [3] it was 16 µM.
Turning to `COc1c2c3c4c(c(OC)c(=O)c5c(O)cc(OC)c(c6c(OC)cc(O)c(c1=O)c63)c54)[C@@H](C(C)=O)[C@@](C)(O)C2` [HYPOCRELLIN A], in data set [4], the Drug uptake entry was “Active”. The IC50 in data set [5] was found to be 7.47 µM; in data set [6], 0.55 µM. Further, the result in data set [7] was Active.
Take `COC1=C2c3c4c5c(c(O)cc(OC)c5c5c(OC)cc(O)c(c35)C1=O)C(=O)[C@@]1(OC)O[C@@H](C)C[C@@]41[C@H]2C(C)=O` [PHAEOSPHAERIN A]: the values for the IC50 in data set [1], in data set [2] and in data set [3] were 5.84 µM, 10.8 µM and 10.8 µM, respectively.
As to `COC1=C2c3c4c5c(c(O)cc(OC)c5c5c(OC)cc(O)c(c35)C1=O)C(=O)[C@@H](OC)[C@@]41C[C@H](C)O[C@@]21C(C)=O` [PHAEOSPHAERIN B], the half-maximal inhibitory concentration (IC50) in data set [1] is 2.42 µM; in data set [2], 9.54 µM; in data set [3], 2.67 µM.
As to `COC1=C2c3c4c5c(c(O)cc(OC)c5c5c(OC)cc(O)c(c35)C1=O)C(=O)[C@@H](OC)[C@]4(CC(C)O)[C@@H]2C(C)=O` (some centres undefined) [PHAEOSPHAERIN C], the IC50 was 6.11 µM in data set [1]; 15.2 µM in data set [2]; 14.3 µM in data set [3]; 19.5 µM in data set [5]; 7.08 µM in data set [6]. Moreover, the Drug uptake result in data set [4] was “Active”. Besides, the result in data set [7] was Active.
Consider `COC1=C2c3c4c5c(c(O)cc(OC)c5c5c(OC)cc(O)c(c35)C1=O)C(=O)[C@@H](OC)[C@@]41C[C@H](C)O[C@]2(O)[C@]1(C)O` [PHAEOSPHAERIN D], for which the IC50 in data set [1] turned out to be 9.74 µM; in data set [2], 20.2 µM; in data set [3] it was 24.9 µM.
Consider `COC1=C2c3c4c5c(c(O)cc(OC)c5c5c(OC)cc(O)c(c35)C1=O)C(=O)[C@H](OC)[C@]41C[C@H](C)O[C@@]2(C(C)=O)O1` [PHAEOSPHAERIN E], for which the results for the IC50 in data set [1], in data set [2] and in data set [3] were 5.25 µM, 16.2 µM and 10.1 µM, respectively.
On to `COC1=C2c3c4c5c(c(O)cc(OC)c5c5c(OC)cc(O)c(c35)C1=O)C(=O)[C@@H](OC)[C@@]41C[C@H](C)O[C@]2(C(C)=O)O1` [PHAEOSPHAERIN F], for which the results for the IC50 in data set [1], in data set [2] and in data set [3] were 5.45 µM, 16.7 µM and 11.8 µM, respectively.
